What was measured:
Type in all cases: cell-based
[1] = test system: Bifidobacterium bifidum YIT 10347 (BF-1); assay: Culture of BF-1 in whey culture medium with L-cystine or L-cysteine; settings: BF-1, whey simultaneous heating culture medium, 12 hours
Experimental: A skimmed milk powder was dissolved in RO water at 12% (w/v), and the 12% (w/v) skimmed milk was adjusted to a pH of 4.6 with 5 N HCl, followed by centrifugation at 3,000×g for 5 minutes. Subsequently, the supernatant was adjusted to a pH of 6.5 with 5 N NaOH and was centrifuged at 10,000×g for 15 to 30 minutes. The supernatant was dispensed in 10 mL aliquots in a rimmed medium-sized test tube while replacing the headspace with nitrogen gas and sealed with a butyl rubber stopper. Subsequently, the supernatant was sterilized by heat in an autoclave at 115° C. for 30 minutes to provide a whey culture medium separated before heating. In addition, as in the skimmed milk culture medium, simultaneous heating culture medium was prepared in anaerobic conditions by adding L-cystine or L-cysteine before heating and then performing heat sterilization. The addition concentration of L-cystine or L-cysteine was adjusted to 0.001, 0.003, 0.005, 0.01, 0.03, 0.05, or 0.1% (w/v) as the final concentration.
Inoculation and culture were performed as in Example 1 except that only when BbY was cultured in the skimmed milk culture medium, the culture time was 9 hours.

[2] = test system: Lactobacillus acidophilus YIT 0198; assay: Culture of YIT 0198 in skimmed milk culture medium with L-cystine or L-cysteine; settings: YIT 0198, skimmed milk culture medium, 0.05 (w/v) %, 37° C., 12 hours, FIG. 1
Experimental: (§1) Bifidobacterium breve YIT 12272 (hereinafter, referred to as BbY), Bifidobacterium bifidum YIT 10347 (hereinafter, referred to as BF-1), Lactobacillus casei YIT 9029 (hereinafter, referred to as YIT 9029), and Lactobacillus acidophilus YIT 0198 (hereinafter, referred to as YIT 0198) were used.
(§2) A skimmed milk powder (ABC, manufactured by MEGMILK SNOW BRAND Co., Ltd.) was dissolved in RO water at 12% (w/v), the solution was dispensed in 10 mL aliquots in a rimmed medium-sized test tube while replacing the headspace with nitrogen gas and sealed with a butyl rubber stopper. Subsequently, the solution was sterilized by heat in an autoclave (SX-500, manufactured by Tomy Seiko Co., Ltd.) at 115° C. for 30 minutes to provide a skimmed milk culture medium (additive-free culture medium). […]
(§3) The pH of a culture medium or a bacterial solution was measured using a desk-top pH meter (F52, manufactured by HORIBA, Ltd.). […]
(§4) Regardless of the bacterial strain, a bacterial solution was appropriately diluted with a 0.85% (w/v) sodium chloride aqueous solution (physiological saline solution). […] The grown colonies were counted as the viable cell count. […] Colonies were counted using a colony counter ProtoCOL (manufactured by Synoptics Ltd.).

[3] = test system: Lactobacillus casei YIT 9029; assay: Culture of YIT 9029 in skimmed milk culture medium with L-cystine or L-cysteine; settings: YIT 9029, skimmed milk culture medium, 0.05 (w/v) %, 37° C., 12 hours, FIG. 1
Experimental: as §1, §2, §3, §4

Row | Compound | concentration at which the viable cell count was maximum [1] | growth promotion by addition [2] | growth promotion by addition [3]
1 | Cl.N[C@@H](CS)C(=O)O [L-cysteine, L-cysteine hydrochloride] | 0.03 % (w/v) | not observed | not observed
2 | N[C@@H](CSSC[C@H](N)C(=O)O)C(=O)O [L-cystine] | 0.03 % (w/v) | not observed | not observed
